Laboratory results from patent publication US20240101570A1 (AMGEN INC., priority 2020, published 2024).
Read-outs that look alike come from different tables or passages of the source.

Tests used:
HCT116 MTAP null cells = assay: HCT116 MTAP null cell proliferation / viability (CellTiter-Glo, 6 days); type: cell-based; conditions: HCT116-MTAP null, 144 h, read-out: HCT-116 MTAP null IC50
Method in brief: (§1)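 CellTiter-Glo luminescence, 6-day exposure, RPMI 1640 + 10% FBS. Dosing: 1:3 series (8-9 pts, top 1 or 10 μM) or 1:2 series (22 pts, top 10 or 50 μM), DMSO control. IC50 = 50% of control via curve fit.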

HCT116 WT cells = assay: HCT116 WT cell proliferation / viability (CellTiter-Glo, 6 days); type: cell-based; conditions: Homo sapiens, HCT-116, 144 h, read-out: HCT-116 WT IC50
Method in brief: as §1

[1] = HCT116 MTAP null cells, 6 days, CellTiter-Glo
[2] = HCT116 WT cells, 6 days, CellTiter-Glo

Structure (SMILES)	IC50 (HCT116 MTAP null cells; [1])	IC50 (HCT116 WT cells; [2])	IC50 (HCT116 MTAP null cells)	IC50 (HCT116 WT cells)
Cn1cc(N(Cc2ccc(C(F)(F)F)cc2)C(=O)c2cc3c4c(c(N)nc3cn2)COC4)cn1 [Example 882, 4-amino-N-(1-methyl-1H-pyrazol-4-yl)-N-(4-(trifluoromethyl)benzyl)-1,3-dihydrofuro[3,4-c][1,7]naphthyridine-8-carboxamide 2,2,2-trifluoroacetate]	62 nM	1340 nM		
Nc1nc2ccc(C(=O)N(Cc3ccc(C(F)(F)F)cn3)c3cccc(F)c3)cc2c2c1COC2 [Example 883, 4-amino-N-(3-fluorophenyl)-N-((5-(trifluoromethyl)-2-pyridinyl)methyl)-1,3-dihydrofuro[3,4-c]quinoline-8-carboxamide]	20 nM	514 nM		
Cn1cc(N(Cc2ccc(C(F)(F)F)cn2)C(=O)c2ccc3nc(N)c4c(c3c2)COC4)cn1 [Example 884, 4-amino-N-(1-methyl-1H-pyrazol-4-yl)-N-((5-(trifluoromethyl)-2-pyridinyl)methyl)-1,3-dihydrofuro[3,4-c]quinoline-8-carboxamide]	27 nM	733 nM		
Cn1cc(N(Cc2ccc(C(F)(F)F)cn2)C(=O)c2cc3c4c(c(N)nc3cn2)COC4)cn1 [Example 885, 4-amino-N-(1-methyl-1H-pyrazol-4-yl)-N-((5-(trifluoromethyl)-2-pyridinyl)methyl)-1,3-dihydrofuro[3,4-c][1,7]naphthyridine-8-carboxamide]	25 nM	596 nM		
Cn1cc(N(Cc2ccc(C(F)(F)F)cn2)C(=O)c2cnc3nc(N)c4c(c3c2)COC4)cn1 [Example 886, 4-amino-N-(1-methyl-1H-pyrazol-4-yl)-N-((5-(trifluoromethyl)-2-pyridinyl)methyl)-1,3-dihydrofuro[3,4-c][1,8]naphthyridine-8-carboxamide]	1690 nM	> 10000 nM		
C[C@H](c1ncccn1)N(Cc1ccc(C(F)(F)F)cn1)C(=O)c1ccc2nc(N)c3c(c2c1)CCOC3 [Example 887, 5-amino-N-[(1R)-1-pyrimidin-2-ylethyl]-N-[[5-(trifluoromethyl)-2-pyridyl]methyl]-2,4-dihydro-1H-pyrano[3,4-c]quinoline-9-carboxamide]	25 nM	496 nM		
C[C@H](c1ncccn1)N(Cc1ccc(C(F)(F)F)cn1)C(=O)c1ccc2nc(N)c3c(c2c1)OCC3 [Example 888, 4-amino-N-[(1R)-1-pyrimidin-2-ylethyl]-N-[[5-(trifluoromethyl)-2-pyridyl]methyl]-2,3-dihydrofuro[3,2-c]quinoline-8-carboxamide]	21 nM	231 nM		
CC(C)CN(Cc1ccc(C(F)(F)F)cn1)C(=O)c1ccc2nc(N)c3c(c2c1)COC3(C)C [Example 889]			202 nM	4740 nM
CC1OCc2c1c(N)nc1ccc(C(=O)N(Cc3ccc(C(F)(F)F)cn3)Cc3ncccc3F)cc21 (stereo not shown) [Example 890, 4-amino-N-((3-fluoropyridin-2-yl)methyl)-3-methyl-N-((5-(trifluoromethyl)pyridin-2-yl)methyl)-1,3-dihydrofuro[3,4-c]quinoline-8-carboxamide]	14 nM	156 nM		
CC1OCc2c1c(N)nc1ccc(C(=O)N(Cc3ccc(C#N)cn3)C(C)C3CCOCC3)cc21 (stereo not shown) [Example 892, 4-amino-N-((5-cyanopyridin-2-yl)methyl)-3-methyl-N-(1-(tetrahydro-2H-pyran-4-yl)ethyl)-1,3-dihydrofuro[3,4-c]quinoline-8-carboxamide]	73 nM	1900 nM		
CC1OCc2c1c(N)nc1ccc(C(=O)N(Cc3ccc(C(F)(F)F)cn3)CC3CCOCC3)cc21 (stereo not shown) [Example 895, 4-amino-3-methyl-N-((tetrahydro-2H-pyran-4-yl)methyl)-N-((5-(trifluoromethyl)pyridin-2-yl)methyl)-1,3-dihydrofuro[3,4-c]quinoline-8-carboxamide]	51 nM	550 nM		
CC1OCc2c1c(N)nc1ccc(C(=O)N(Cc3ccc(C#N)cn3)CC3CCOCC3)cc21 (stereo not shown) [Example 896, 4-amino-N-((5-cyanopyridin-2-yl)methyl)-3-methyl-N-((tetrahydro-2H-pyran-4-yl)methyl)-1,3-dihydrofuro[3,4-c]quinoline-8-carboxamide]	88 nM	1800 nM		
CC1OCc2c1c(N)nc1ccc(C(=O)N(Cc3ccc(C#N)cn3)C3CCCC3C#N)cc21 (stereo not shown) [Example 898, 4-amino-N-(2-cyanocyclopentyl)-N-((5-cyanopyridin-2-yl)methyl)-3-methyl-1,3-dihydrofuro[3,4-c]quinoline-8-carboxamide]	52 nM	290 nM		
CC1OCc2c1c(N)nc1ccc(C(=O)N(Cc3ccc(C(F)(F)F)cn3)C3CC34CCCCC4)cc21 (stereo not shown) [Example 905, 4-amino-3-methyl-N-(spiro[2.5]octan-1-yl)-N-((5-(trifluoromethyl)pyridin-2-yl)methyl)-1,3-dihydrofuro[3,4-c]quinoline-8-carboxamide]	80 nM	4600 nM		
CC1OCc2c1c(N)nc1ccc(C(=O)N(Cc3ccc(C(F)(F)F)cn3)C3CC3(C)C)cc21 (stereo not shown) [Example 908, 4-amino-N-(2,2-dimethylcyclopropyl)-3-methyl-N-((5-(trifluoromethyl)pyridin-2-yl)methyl)-1,3-dihydrofuro[3,4-c]quinoline-8-carboxamide]	123 nM	6200 nM		
CC1OCc2c1c(N)nc1ccc(C(=O)N(Cc3ccc(C(F)(F)F)cn3)C3CC34CCCC4)cc21 (stereo not shown) [Example 909, 4-amino-3-methyl-N-(spiro[2.4]heptan-1-yl)-N-((5-(trifluoromethyl)pyridin-2-yl)methyl)-1,3-dihydrofuro[3,4-c]quinoline-8-carboxamide]	215 nM	8000 nM		
CC1OCc2c1c(N)nc1ccc(C(=O)N(Cc3ccc(C(F)(F)F)cn3)[C@H](C)c3ncccn3)cc21 (stereo partly drawn) [Example 911, 4-amino-3-methyl-N-((R)-1-(pyrimidin-2-yl)ethyl)-N-((5-(trifluoromethyl)pyridin-2-yl)methyl)-1,3-dihydrofuro[3,4-c]quinoline-8-carboxamide]	21 nM	173 nM		
CC1OCc2c1c(N)nc1ccc(C(=O)N(Cc3ccc(C#N)cn3)CC3(C#N)CC3)cc21 (stereo not shown) [Example 913, 4-amino-N-((1-cyanocyclopropyl)methyl)-N-((5-cyanopyridin-2-yl)methyl)-3-methyl-1,3-dihydrofuro[3,4-c]quinoline-8-carboxamide]	49 nM	1700 nM		

Second part, led by results:

IC50 (HCT116 MTAP null cells; [1])	IC50 (HCT116 WT cells; [2])	Structure (SMILES)	IC50 (HCT116 MTAP null cells)	IC50 (HCT116 WT cells)
24 nM	110 nM	CC1OCc2c1c(N)nc1ccc(C(=O)N(Cc3ccc(C(F)(F)F)cn3)C3CCCC3C#N)cc21 (stereo not shown) [Example 897, 4-amino-N-(2-cyanocyclopentyl)-3-methyl-N-((5-(trifluoromethyl)pyridin-2-yl)methyl)-1,3-dihydrofuro[3,4-c]quinoline-8-carboxamide]		
130 nM	9700 nM	CC1OCc2c1c(N)nc1ccc(C(=O)N(Cc3ccc(C(F)(F)F)cn3)C3CCOC3)cc21 (stereo not shown) [Example 899, 4-amino-3-methyl-N-(tetrahydrofuran-3-yl)-N-((5-(trifluoromethyl)pyridin-2-yl)methyl)-1,3-dihydrofuro[3,4-c]quinoline-8-carboxamide]		
290 nM	> 10000 nM	CC1OCc2c1c(N)nc1ccc(C(=O)N(Cc3ccc(C(F)(F)F)cn3)[C@H]3[C@@H]4COC[C@@H]43)cc21 (stereo partly drawn) [Example 900, 4-amino-N-((1R,5S,6r)-3-oxabicyclo[3.1.0]hexan-6-yl)-3-methyl-N-((5-(trifluoromethyl)pyridin-2-yl)methyl)-1,3-dihydrofuro[3,4-c]quinoline-8-carboxamide]		
42 nM	430 nM	CC1OCc2c1c(N)nc1ccc(C(=O)N(Cc3ccc(C(F)(F)F)cn3)C3CCOCC3C)cc21 (stereo not shown) [Example 901, 4-amino-3-methyl-N-(3-methyltetrahydro-2H-pyran-4-yl)-N-((5-(trifluoromethyl)pyridin-2-yl)methyl)-1,3-dihydrofuro[3,4-c]quinoline-8-carboxamide]		
34 nM	330 nM	CO[C@@H]1COCC[C@H]1N(Cc1ccc(C(F)(F)F)cn1)C(=O)c1ccc2nc(N)c3c(c2c1)COC3C (stereo partly drawn) [Example 902, 4-amino-N-((3S,4R)-3-methoxytetrahydro-2H-pyran-4-yl)-3-methyl-N-((5-(trifluoromethyl)pyridin-2-yl)methyl)-1,3-dihydrofuro[3,4-c]quinoline-8-carboxamide]		
58 nM	4000 nM	CO[C@H]1COCC[C@@H]1N(Cc1ccc(C(F)(F)F)cn1)C(=O)c1ccc2nc(N)c3c(c2c1)COC3C (stereo partly drawn) [Example 903, 4-amino-N-((3R,4S)-3-methoxytetrahydro-2H-pyran-4-yl)-3-methyl-N-((5-(trifluoromethyl)pyridin-2-yl)methyl)-1,3-dihydrofuro[3,4-c]quinoline-8-carboxamide]		
31 nM	1600 nM	CC1OCc2c1c(N)nc1ccc(C(=O)N(Cc3ccc(C(F)(F)F)cn3)C3CC3C3CC3)cc21 (stereo not shown) [Example 904, N-([1,1′-bi(cyclopropan)]-2-yl)-4-amino-3-methyl-N-((5-(trifluoromethyl)pyridin-2-yl)methyl)-1,3-dihydrofuro[3,4-c]quinoline-8-carboxamide]		
40 nM	> 1000 nM	CCOC1CC1N(Cc1ccc(C(F)(F)F)cn1)C(=O)c1ccc2nc(N)c3c(c2c1)COC3C (stereo not shown) [Example 907, 4-amino-N-(2-ethoxycyclopropyl)-3-methyl-N-((5-(trifluoromethyl)pyridin-2-yl)methyl)-1,3-dihydrofuro[3,4-c]quinoline-8-carboxamide]		
